Laboratory results: patent publication US5455229A, “Method for minimizing and containing ischemic and reperfusion injury” (Eli Lilly and Company, priority 1992, dated 1995)

Assays:
dog = details: Diaz et al., Am. J. Cardiol. 40: 541-549, 1977; cited from earlier work
beagle dogs = assay: In vivo assay: myocardial infarct size following coronary artery occlusion (1 hr) and reperfusion (5 hr) in anesthetized dogs; set-up: species or system dog; details: dogs infused with aprotinin, control dogs 37.9±5.4%, P<0.05
Protocol: Adult male beagle dogs weighing approximately 9-14 kg were anesthetized with pentobarbital sodium (30 mg/kg, i.v.). The tracheae were intubated, and the dogs were ventilated with room air delivered from a Harvard respirator (ventilation rate of 16 cycles/min, tidal volume, 25 ml/kg). Body temperature was maintained at 37-°38° C. with a heating pad. Catheters were placed in the left femoral artery and vein for measurement of phasic arterial blood pressure (Starham transducer, P23ID) and i.v. infusion of drug solutions, respectively. Mean arterial blood pressure was calculated as diastolic blood pressure plus 1/3 pulse pressure. Cardiac rate was monitored by a cardiotachometer that was triggered by the systolic pressure pulse, while the pressure rate product was monitored as an index of myocardial oxygen demand. […] Directly measured parameters were recorded continuously on a multichannel oscillograph (Beckman Instruments,Inc., Fullerton Calif.; model R611).
A left thoracotomy was performed at the fifth intercostal space, the heart was suspended in a pericardial cradle, and the left circumflex coronary artery (LCX) was isolated distal to its atrial branch and proximal to any major ventricular branches. Baseline circumflex coronary artery blood flow was measured using a calibrated flowprobe (Carolina Medical Electronics, 6 mm I.C.) connected to a Carolina flowmeter (model FM501). […]

Substance: aprotinin [reference compound]
- myocardial ischemic injury associated with coronary artery occlusion (dog): has been shown to limit myocardial ischemic injury
- infarct size, % of the left ventricular mass at risk of necrosis (beagle dogs): 24.8±2.4%
